{"source": "paper PMC7948413", "about": "(The Journal of Biological Chemistry, 2021)", "target": "T1, cytosolic phosphoenolpyruvate carboxykinase (PCK1) (Rattus norvegicus, UniProt P07379)", "T1 sequence (P07379 1-622)": "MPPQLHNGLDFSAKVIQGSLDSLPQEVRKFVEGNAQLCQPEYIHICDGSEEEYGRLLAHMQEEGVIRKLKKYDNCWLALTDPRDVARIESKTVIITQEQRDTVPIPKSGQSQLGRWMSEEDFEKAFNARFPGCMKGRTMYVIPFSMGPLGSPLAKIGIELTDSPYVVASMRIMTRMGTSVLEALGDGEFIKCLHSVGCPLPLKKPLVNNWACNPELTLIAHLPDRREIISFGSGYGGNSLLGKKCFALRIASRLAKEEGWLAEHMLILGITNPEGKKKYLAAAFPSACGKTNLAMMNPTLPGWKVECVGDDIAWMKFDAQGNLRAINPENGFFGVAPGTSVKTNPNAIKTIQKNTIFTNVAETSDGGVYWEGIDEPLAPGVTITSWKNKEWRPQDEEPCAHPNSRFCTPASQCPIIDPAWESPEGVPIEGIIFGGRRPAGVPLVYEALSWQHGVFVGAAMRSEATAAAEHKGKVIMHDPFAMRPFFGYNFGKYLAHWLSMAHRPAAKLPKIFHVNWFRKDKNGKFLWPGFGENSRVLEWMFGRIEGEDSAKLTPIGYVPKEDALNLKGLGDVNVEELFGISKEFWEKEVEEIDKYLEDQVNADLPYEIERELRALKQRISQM", "assay": "STD NMR and DEEP-STD NMR", "type": "binding", "data": [{"smiles": "CC(C)(COP(=O)(O)OP(=O)(O)OC[C@H]1O[C@@H](n2cnc3c(N)ncnc32)[C@H](O)[C@@H]1OP(=O)(O)O)[C@@H](O)C(=O)NCCC(=O)NCCS", "note": "[coenzyme A]", "values": [{"measurement": "STD NMR and DEEP-STD NMR", "value": "STD NMR experiments showed clear STD signals for both, acetyl-CoA and CoA (see Fig. S4), confirming that they bind to PCK1"}]}]}
